In US12162819B2, “Ionizable lipid compounds” (Beijing Jitai Pharmaceutical Technology Co., Ltd., priority 2022, dated 2024):

Tests used:
[1] = Encapsulation efficiency of lipid nanoparticles, Quant-It RiboGreen RNA Assay; assay type: physicochemical; conditions: lipid nanoparticle with the cationic lipid, luciferase mRNA
Experimental: (§1) Lipid nanoparticles were prepared by (1) dissolving and mixing ionizable lipid compounds, cholesterol, phospholipids and polyethylene glycolated lipids in ethanol at (molar percentages) 50%, 38.5%, 10% and 1.5%, respectively; (2) dissolving the mRNA active ingredient in 25 mM sodium acetate solution (pH=4.5); (3) using an automated high-throughput microfluidic system to mix the organic phase containing the lipid mixture and the aqueous phase containing the mRNA component in the flow ratio range of 1:1 to 1:4 at a mixing speed of 10 mL/min to 18 mL/min; (4) the prepared lipid nanoparticles (N/P ratio of 6) were diluted with phosphate buffer solution and the nanoparticle solutions were ultrafiltered to the original preparation volume using ultrafiltration tubes (purchased from Millipore) with a cut-off molecular weight of 30 kDa; and (5) the obtained nanoparticles were filtered through a sterile 0.2 μm filter membrane and then stored in a sealed glass vial at low temperature.
(§2) The particle size and particle size dispersity index (PDI) of the prepared lipid nanoparticles were measured using a Zetasizer Pro (purchased from Malvern Instruments Ltd) and a DynaPro NanoStar (purchased from Wyatt) dynamic light scattering instrument. The degree of RNA encapsulation by lipid nanoparticles was characterized by the Encapsulation Efficiency %, which reflects the degree of binding of lipid nanoparticles to RNA fragments. This parameter was measured by the method of Quant-It™ RiboGreen RNA Assay (purchased from Invitrogen). Lipid nanoparticle samples were diluted in TE buffer (10 mM Tris-HCl, 1 mM EDTA, pH=7.5). A portion of the sample solution was removed, to which 0.5% Triton (Triton X-100) was added, and then allowed to stand at 37° C. for 30 minutes. Immediately after the addition of RIBOGREEN® reaction solution, the fluorescence values were read on a Varioskan LUX multifunctional microplate reader (purchased from Thermofisher) at 485 nm for absorption and 528 nm for emission to give the encapsulation efficiency values.

[2] = Particle size and PDI of lipid nanoparticles by dynamic light scattering; assay type: physicochemical; conditions: lipid nanoparticle with the cationic lipid, cholesterol, DSPC, DMG-PEG2000 (50/38.5/10/1.5 mol%), luciferase mRNA, N/P 6
Experimental: as §1, §2

Row | Encapsulation efficiency (%) [1] [%] | Particle size (nm) [2] [nm] | Particle size dispersity (PDI) [2] | SMILES
1 | 71.95 | 152.04 | 0.07 | CCCCCCC#CCOC(=O)C(C)(C)CCCCCC(CCCCCC(C)(C)C(=O)OCCCCCCCCC)OC(=O)CCCN(C)C (stereo not drawn) [Compound 42]
2 | 83.74 | 99.54 | 0.05 | CCCCCCCCCSC(=O)C(C)(C)CCCCCC(CCCCCC(C)(C)C(=O)SCCCCCCCCC)OC(=O)C1CCN(C(C)C)CC1 [Compound 107]
3 | 30.95 | 81.43 | 0.12 | CCCCCCCCCCOC(=O)C(C)(C)CCCCCC(CCCCCC(C)(C)C(=O)OCCCCCCCCCC)OC(=O)CN(C)C [Compound 17]
4 | 86.88 | 133.80 | 0.04 | CCCCCCCCCOC(=O)C(C)(C)CCCCCC(CCCCCC(C)(C)C(=O)OCCCCCCCCC)OC(=O)CCN(C)C [Compound 3]
5 | 90.29 | 104.71 | 0.04 | CCCCCCCCCCSC(=O)C(C)(C)CCCCCC(CCCCCC(C)(C)C(=O)SCCCCCCCCCC)OC(=O)CCCN(C)C [Compound 34]
6 | 91.54 | 80.07 | 0.06 | CCCCCCCCCCOC(=O)C(C)(C)CCCCCC(CCCCCC(C)(C)C(=O)OCCCCCCCCCC)OC(=O)CCN(C)C [Compound 1]
7 | 19.41 | 352.82 | 0.07 | CCCCCCCCCNC(=O)C(C)(C)CCCCCC(CCCCCC(C)(C)C(=O)NCCCCCCCCC)OC(=O)CCN(C)C [Compound 9]
8 | 93.87 | 88.33 | 0.07 | CCCCCCCCCOC(=O)C(C)(C)CCCCCC(CCCCCC(C)(C)C(=O)OCC#CC(CCCCCC)CCCCCC)OC(=O)CCCN(C)C (stereo not drawn) [Compound 118]
9 | 97.06 | 83.90 | 0.05 | CCCCCCCCCCSC(=O)C(C)(C)CCCCCC(CCCCCC(C)(C)C(=O)OCCCCCCCCC)OC(=O)CCCN(C)C (stereo not drawn) [Compound 40]
10 | 92.27 | 84.98 | 0.05 | CCCCCCCCCCOC(=O)C(C)(C)CCCCC(CCCCC(C)(C)C(=O)OCC(CCCCC)CCCCCCC)OC(=O)CCCN(C)C (stereo not drawn) [Compound 123]
11 | 85.65 | 83.09 | 0.05 | CCCCCCCCCSC(=O)C(C)(C)CCCCCC(CCCCCC(C)(C)C(=O)SCCCCCCCCC)OC(=O)C1CCN(C)CC1 [Compound 106]
12 | 85.54 | 71.14 | 0.06 | CCCCCCCCCCSC(=O)C(C)(C)CCCCCC(CCCCCC(C)(C)C(=O)SCCCCCCCCCC)OC(=O)C1CCN(C)CC1 [Compound 104]
13 | 53.83 | 118.59 | 0.07 | CCCCCCCCCCCCNC(=O)C(C)(C)CCCCCC(CCCCCC(C)(C)C(=O)NCCCCCCCCCCCC)OC(=O)CCN(C)C [Compound 10]
14 | 60.36 | 127.82 | 0.07 | CCCCCCCCCCNC(=O)C(C)(C)CCCCCC(CCCCCC(C)(C)C(=O)NCCCCCCCCCC)OC(=O)CCN(C)C [Compound 8]
15 | 87.86 | 161.29 | 0.05 | CCCCCCCCCCOC(=O)C(C)(C)CCCCCC(CCCCCC(C)(C)C(=O)OCCCCCCCCCC)OC(=O)CCCN(C)C [Compound 18]
16 | 79.14 | 229.35 | 0.03 | CCCCCCCCOC(=O)C(C)(C)CCCCCC(CCCCCC(C)(C)C(=O)OCCCCCCCC)OC(=O)CCN(C)C [Compound 2]
17 | 91.76 | 96.72 | 0.07 | CCCCCCCCCOC(=O)C(C)(C)CCCCC(CCCCC(C)(C)C(=O)OCC(CCCCC)CCCCCCC)OC(=O)CCCN(C)C (stereo not drawn) [Compound 122]
18 | 87.11 | 101.04 | 0.06 | CCCCCCCCCSC(=O)C(C)(C)CCCCCC(CCCCCC(C)(C)C(=O)SCCCCCCCCC)OC(=O)CC1CCN(CC)CC1 [Compound 109]

Second part, the molecule before the results:

Row | SMILES | Encapsulation efficiency (%) [1] [%] | Particle size (nm) [2] [nm] | Particle size dispersity (PDI) [2]
19 | CCCCCCCCCSC(=O)C(C)(C)CCCCCC(CCCCCC(C)(C)C(=O)OCC(CCCCC)CCCCCCC)OC(=O)CC1CCN(C)CC1 (stereo not drawn) [Compound 112] | 94.41 | 121.05 | 0.08
20 | CC(C)CCCC(C)CCOC(=O)C(C)(C)CCCCCC(CCCCCC(C)(C)C(=O)OCCC(C)CCCC(C)C)OC(=O)CCN(C)C (stereo not drawn) [Compound 6] | 90.26 | 106.18 | 0.05
21 | CCCCCCCCCOC(=O)C(C)(C)CCCCCC(CCCCCC(C)(C)C(=O)OCCCCCCCCC)OC(=O)C1CCN(C)CC1 [Compound 102] | 90.03 | 102.18 | 0.03
22 | CCCCC(CC#CCOC(=O)C(C)(C)CCCCCC(CCCCCC(C)(C)C(=O)OCC#CCC(CCCC)CCCC)OC(=O)CCCN(C)C)CCCC [Compound 117] | 95.29 | 127.31 | 0.06
23 | CCCCCCCCCCOC(=O)C(C)(C)CCCCCC(CCCCCC(C)(C)C(=O)OCCCCCCCCCC)OC(=O)CCN1CCCC1 [Compound 92] | 91.66 | 107.56 | 0.05
24 | CCCCCCCCCOC(=O)CCCCCCC(CCCCCCC(=O)OCCCCCCCCC)OC(=O)CCCN(C)C [Compound D1, reference compound] | 97.08 | 131.2 | 0.18
25 | CCCCCCCC#CCOC(=O)C(C)(C)CCCCCC(CCCCCC(C)(C)C(=O)OCCCC(CCCCC)CCCCC)OC(=O)CCCN(C)C (stereo not drawn) [Compound 115] | 91.76 | 77.12 | 0.04
26 | CC/C=C\CCCCCOC(=O)C(C)(C)CCCCCC(CCCCCC(C)(C)C(=O)OCCCCC/C=C\CC)OC(=O)CCN(C)C [Compound 7] | 69.51 | 203.67 | 0.04
27 | CCCCCCCCCCOC(=O)C(C)(C)CCCCCC(CCCCCC(C)(C)C(=O)OCCCCCCCCCC)OC(=O)CCN1CCOCC1 [Compound 90] | 83.21 | 18.17 | 0.05
28 | CCCCCCCCCCOC(=O)C(C)(C)CCCCCC(CCCCCC(C)(C)C(=O)OCCCCCCCCCC)OC(=O)CN1CCOCC1 [Compound 91] | 102.99 | 32.61 | 0.05
29 | CCCCCCC/C=C\COC(=O)CC(C)(C)CCCCC(CCCCC(C)(C)CC(=O)OCC(CCCCC)CCCCCCC)OC(=O)CCCN(C)C (stereo not drawn) [Compound 98] | 93.28 | 107.87 | 0.13
30 | CCCCCCCC#CCOC(=O)C(C)(C)CCCCCC(CCCCCC(C)(C)C(=O)OCC(CCCCC)CCCCCCC)OC(=O)CCCN(C)C (stereo not drawn) [Compound 116] | 89.36 | 88.62 | 0.05
31 | CCCCCCC#CCCOC(=O)C(C)(C)CCCCCC(CCCCCC(C)(C)C(=O)OCCC#CCCCCCC)OC(=O)CCCN(C)C [Compound 24] | 60.98 | 133.72 | 0.04
32 | CCCCCCCC#CCOC(=O)C(C)(C)CCCCCC(CCCCCC(C)(C)C(=O)OCC#CCCCCCCC)OC(=O)CCCN(C)C [Compound 23] | 70.22 | 151.35 | 0.07
33 | CCCCCCCCOC(=O)C(C)(C)CCCCCC(CCCCCC(C)(C)C(=O)OCCCCCCCC)OC(=O)C1CCN(C(C)C)CC1 [Compound 101] | 76.09 | 152.45 | 0.06
34 | CCCCCCCCCOC(=O)C(C)(C)CCCCCC(CCCCCC(C)(C)C(=O)OCCCCCCCCC)OC(=O)C1CCN(C(C)C)CC1 [Compound 103] | 90.97 | 148.67 | 0.04
35 | CCCCCCCCCOC(=O)C(C)(C)CCCCCC(CCCCCC(C)(C)C(=O)OCC(CCCCC)CCCCCCC)OC(=O)CC1CCN(C)CC1 (stereo not drawn) [Compound 111] | 95.12 | 141.30 | 0.06
